Data as given in US12233130B2, “Covalently-modified steroid acid-peptides having enhanced stability and/or biological activity” (DEFENCE THERAPEUTICS INC., priority 2022, dated 2025).
Positions of bridges follow the written chain, without caps; N, C: chain ends. Residues, ends and D or L forms follow the SMILES beside them. Chains are numbered I, II in the order given. *: point of attachment. Chenodeoxycholyl = C[C@H](CCC(=O)*)[C@H]1CC[C@H]2[C@@H]3[C@H](O)C[C@@H]4C[C@H](O)CC[C@]4(C)[C@H]3CC[C@]12C

System: JIMT-1 breast cancer cells
Experiment: Cell cytotoxicity assay (PrestoBlue)
Assay type: cell-based
Procedure: 50 mg of CDCA-C-SV40 monomers (or other steroid acid-peptide monomers) were resuspended in 200-500 μL of DMSO. 10 eq of N,N-Diisopropylethylamine (DIPEA) was added to the mixture and incubated in a thermomixer at 37° C. with agitation (1000 rpm) overnight, enabling dimerization of the monomers via their N-terminal cysteine thiol groups to produce (CDCA-C-SV40)2 or other dimers. The samples were then analyzed by UPLC-MS to evaluate dimer formation efficiency. Cell toxicity was evaluated via a Cell Toxicity assay (PrestoBlue™).
In a T75 flask of confluent JIMT-1 cells (at least 75%), the culture medium was removed, and 2 mL of trypsin was then added and incubated at 37° C. for about 5 minutes or until the cells detached. The trypsin was inactivated by adding 10 mL of culture medium, the cells were centrifuged at 950 rpm for 5 minutes at 4° C., viable cells were visualized with trypan blue and counted using a hematocytometer. Cells were then plated in a 96-well plate at 5000 cells/well and incubated at 37° C. for 24 hours. Trastuzumab-(CDCA-C-SV40)2 or T-DM1-(CDCA-C-SV40)2 was then added to the cells and incubated for 72 hours at 37° C. […] Fluorescence (excitation: 535-560 nm, emission: 590-615 nm) was measured. The cells were further incubated for another 30 minutes, and a second fluorescence reading was taken.

In the case of CC(C)[C@H](NC(=O)[C@H](CCCCN)NC(=O)CNC(=O)[C@H](Cc1ccc(O)cc1)NC(=O)CNC(=O)[C@H](CO)NC(=O)[C@H](CSSC[C@H](NC(=O)CC[C@@H](C)[C@H]1CC[C@H]2[C@@H]3[C@H](O)C[C@@H]4C[C@H](O)CC[C@]4(C)[C@H]3CC[C@]12C)C(=O)N[C@@H](CO)C(=O)NCC(=O)N[C@@H](Cc1ccc(O)cc1)C(=O)NCC(=O)N[C@@H](CCCCN)C(=O)N[C@H](C(=O)N[C@@H](CO)C(=O)N[C@@H](CCCNC(=N)N)C(=O)N[C@@H](CCCNC(=N)N)C(=O)NCC(=O)NCC(=O)N[C@@H](Cc1c[nH]cn1)C(=O)N[C@@H](CCC(N)=O)C(=O)N[C@@H](CC(N)=O)C(=O)N[C@@H](CO)C(=O)N[C@@H](Cc1ccc(O)cc1)C(=O)N[C@@H](CCCCN)C(=O)N1CCC[C@H]1C(=O)N[C@@H](Cc1ccc(O)cc1)C(=O)O)C(C)C)NC(=O)CC[C@@H](C)[C@H]1CC[C@H]2[C@@H]3[C@H](O)C[C@@H]4C[C@H](O)CC[C@]4(C)[C@H]3CC[C@]12C)C(=O)N[C@@H](CO)C(=O)N[C@@H](CCCNC(=N)N)C(=O)N[C@@H](CCCNC(=N)N)C(=O)NCC(=O)NCC(=O)N[C@@H](Cc1c[nH]cn1)C(=O)N[C@@H](CCC(N)=O)C(=O)N[C@@H](CC(N)=O)C(=O)N[C@@H](CO)C(=O)N[C@@H](Cc1ccc(O)cc1)C(=O)N[C@@H](CCCCN)C(=O)N1CCC[C@H]1C(=O)N[C@@H](Cc1ccc(O)cc1)C(=O)O [(CDCA-C-hnRNP D NLS)2] (I: Chenodeoxycholyl-CSGYGKVSRRGGHQNSYKPY-OH / II: Chenodeoxycholyl-CSGYGKVSRRGGHQNSYKPY-OH; disulfide I:1-II:1), the “cytotoxicity of dimerized version vs monomer” value is reported as “enhancement of cytotoxicity”.
